The values below come from US20040138258A1, “Inhibitors of 11beta-hydroxysteroid dehydrogenase and uses therefor” (priority 2002, published 2004).

This test has as its target T1, rat liver 11β HSD (Rattus norvegicus, UniProt P16232).
T1 construct: for the 11β HSDs isolated from rat liver; from tissue; host or cells: rat liver
In words: rat liver 11β HSD oxidative activity, corticosterone utilization (Lineweaver-Burk kinetics). It counts as biochemical. As to conditions: for inhibition of the enzyme: purified rat liver 11β HSD, 1,2,6,7-3H-corticosterone; for Ki: purified rat liver 11β HSD, oxidative activity, NADP+, 1,2,6,7-3H-corticosterone, with regard to the glucocorticoid substrate, read-out: Kis; for mode of inhibition: with regard to the glucocorticoid substrate (corticosterone), Lineweaver-Burk plot, rat liver 11β HSD oxidative activity. On the procedure: Computational analyses were performed using the latest version of MacSpartan Plus and MSI InsightII. Experimental analysis employed the rat enzyme as described (Monder et al., BBA […] (1991) and references therein). Kinetic data were analyzed in Excel and plotted in CricketGraph.
The structural similarity between GCs like cortisol and the monoterpenes with the conformation of neomenthol (FIG. 1) was confirmed by the computational analysis of their steric and electronic similarities, as summarized in FIGS. 2 and 3. Only neomenthol precisely mimicked the region of GCs around C11 that contains the oxygen atom subjected to the redox reactions mediated by the 11β HSDs. Consequently, only neomenthol should bind to such an enzyme like its physiological substrate, competing with said substrate for the active site of said enzyme. This computation-based prediction was confirmed experimentally, as shown in FIGS. 4 and 5 for the 11β HSDs isolated from rat liver. The purified rat liver 11β HSD, when used in vitro, utilizes NADP+ and oxidizes cortisol and corticosterone in an ordered sequential bireactant mechanism (Monder et al., Biochim. Biophys. Acta 1115:23-29 (1991) and references therein). […] More importantly, the results identified the conformation of neomenthol as a lead for the rational optimization of 11β HSD inhibitors, applicable to both the in vivo oxidizing activity of 11β HSD2 and the in vivo reducing activity of 11β HSD1, as shown in FIG. 6. Using the same computational algorithms that correctly predicted the competitive mode of inhibitory activity for neomenthol, and the lack thereof for isomenthol, molecules were assembled in silico and evaluated for their computed physicochemical characteristics relevant for the desired inhibition of 11β HSD activity. Originating from the lead compounds (FIG. 6), the computational analysis converged on several optimized structures that contained combinations of physicochemical and steric elements prerequisite for 11β HSD inhibition. These structures are identified in FIGS. 7-10. FIG. 7 details for neomenthol the findings obtained with this approach. FIG. 8 details the findings for a representative compound in which, among other modifications, a structure equivalent to the B ring of cortisol has been deleted. FIG. 9 details the findings for a representative compound in which, among other modifications, a ring has been added to the structure equivalent to the D ring of cortisol. FIG. 10 details the findings for a representative compound in which, among other modifications, a structure equivalent to the D ring of cortisol has been deleted. As originally proposed for neomenthol (FIG. 11), these structures are sufficiently isosteric and isoelectronic with cortisol to displace it from its plasma binding proteins, in this way increasing the bioavailable, free cortisol in a living system, e.g. after topical administration to skin only in skin blood vessels.

T1 sequence (P16232 whole entry): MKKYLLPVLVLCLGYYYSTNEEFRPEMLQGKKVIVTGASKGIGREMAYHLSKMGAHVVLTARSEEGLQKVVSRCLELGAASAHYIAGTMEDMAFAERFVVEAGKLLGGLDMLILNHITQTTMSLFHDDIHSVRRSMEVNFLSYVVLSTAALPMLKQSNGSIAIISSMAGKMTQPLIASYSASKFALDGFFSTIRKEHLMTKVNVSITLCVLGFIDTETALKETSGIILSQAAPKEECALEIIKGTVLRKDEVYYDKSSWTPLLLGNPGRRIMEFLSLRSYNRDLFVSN

On to `CC(C)[C@@H]1CC[C@@H](C)C[C@@H]1O` [neomenthol, (1S, 2S, 5R)-neomenthol], for which the “inhibition of the enzyme” value is “inhibited the enzyme”, the Ki was 35 µM and the mode of inhibition entry is given as “competitive”.

`CC(C)[C@H]1CC[C@@H](C)C[C@@H]1O` [isomenthol, (1S, 2R, 5R)-isomenthol]: the “inhibition of the enzyme” value is given as “inhibited the enzyme”, the Ki amounted to 71 µM and the mode of inhibition entry is recorded as “non-competitive”.
